Test results taken from a melting point compilation (Tetko et al.; mined from patent text by program, amines drawn as free bases though some values may be those of a salt).

With COC1=C(OC)C(=O)C(CCCCCCCCCCCCCCCCCCO)=C(C)C1=O the melting point was 81 °C.
OC1C(COC2CC2)OC(n2cnc3c(NC4CCCC4)nc(Cl)nc32)C1O (stereo unspecified) showed a melting point of 104 to 106 °C.
Work on CCOC(=O)C=Cc1ccc(OCc2nc(-c3ccccc3)oc2C)cc1 yielded a melting point of 145 to 146 °C.
With O=c1[nH]c2ccc(I)cc2cc1[N+](=O)[O-] the melting point was 279 to 282 °C.
COc1c(C2CCN(CCCCNC(=O)c3ccc(-c4ccc(C#N)s4)nc3)CC2)ccc2c1CCCC2 gave a melting point of 186 to 188 °C.
For COc1ccc2c(n1)C1(CO2)C(=O)N(Cc2ccc3c(c2)OCCO3)c2ccccc21 (stereo unspecified), the melting point was 144 to 146 °C.
In the case of COCc1nc2c(N)nc3cc(CCC(N)=O)ccc3c2n1CC(C)(C)O, the melting point is reported as 228 to 230 °C.
Work on c1nc(-c2ccc(CN3CCCCCC3)s2)n[nH]1 yielded a melting point of 129 to 130 °C.
For N=C(N)c1ccc(O)cc1, the melting point was 160 °C.
In the case of O=C(O)CCc1ccc(OCc2ccc(Oc3ccccc3)cc2)c(F)c1, the melting point is reported as 123 to 125 °C.
Cn1cc([N+](=O)[O-])nc1C(Cl)Cl showed a melting point of 153 °C.
With Cc1ccc2c3c(ccc2n1)OCC(CNCC1CCc2[nH]c4ccc(Cl)cc4c2C1)O3 (stereo unspecified) the melting point was 104 to 105 °C.
For COC(=O)c1nc2c(c(-c3cccs3)nn2-c2ccccc2)c(N)c1C(=O)OC, the melting point was 178 to 180 °C.
Compound O=C(O)COc1c(Cl)cc(Cl)cc1COc1cccc(OCc2ccc3cc(F)ccc3n2)c1 has a melting point of 189 to 190 °C.
With COc1ccc(-c2cc(S(=O)(=O)c3ccc(N)cc3)cc(N3CCCC3)n2)cc1 the melting point was 227 to 229 °C.
For O=C1c2ccccc2-c2c1c(Cl)nc1ccc(Br)cc21, the melting point was 304 to 306 °C.
Work on COCC(C)Oc1cc(Oc2ccc(S(C)(=O)=O)cc2)cc2cc(C3=NCC(CC(N)=O)S3)[nH]c12 (stereo unspecified) yielded a melting point of 107 to 112 °C.
For CCc1ccc(-c2onc3ccccc23)cc1, the melting point was 42 to 42.5 °C.
For O=C(NCCSCCNC(=O)c1cccc(Cl)c1)c1cccc(Cl)c1, the melting point was 150 to 152 °C.
For CCNC(=O)N(c1ccc(C(O)(C(F)(F)F)C(F)(F)F)cc1)S(C)(=O)=O, the melting point was 161 to 164 °C.
Cc1c(CO)c2cnnc(OCc3ccccc3)c2n1Cc1ccccc1 gave a melting point of 130 to 132 °C.
With COc1ccc(/C=C(\C#N)c2cccc(Br)c2)cc1OC1CCCC1 the melting point was 90 to 91.5 °C.
In the case of OCCOc1cn(-c2ccc(F)cc2)c2ccc(Cl)cc12, the melting point is reported as 118 to 120 °C.
Compound CCOC(=O)c1ccc(NC(=O)CCCCCc2ccc(Cl)cc2)cc1 has a melting point of 107 to 108 °C.
Work on O=C(Cc1ccccc1Nc1c(Cl)cccc1Cl)OCI yielded a melting point of 66 °C.
In the case of O=C(OCc1ccccc1)c1cc(Br)c(OCc2ccccc2)cc1OCc1ccccc1, the melting point is reported as 74 to 76 °C.
Work on CN1CCN(c2ccc([N+](=O)[O-])cc2C(F)(F)F)C1=O yielded a melting point of 119 to 120 °C.
Compound Nc1c(OCCCNCc2ccccc2)cccc1[N+](=O)[O-] has a melting point of 66 to 67 °C.
With Cc1cc(NC(=O)NN(c2ccccc2)c2cccc(CN)c2)ccc1N1CCCCC1=O the melting point was 172 to 173 °C.
Work on Cc1cccc(C)c1NC(=O)c1ccc(C(F)(F)F)cc1 yielded a melting point of 206 to 207 °C.
Compound COC(=O)C(C)N(C(=O)CCl)c1c(Cl)cccc1Cl (stereo unspecified) has a melting point of 82 to 85 °C.
Compound Cc1c(-c2cc(C(F)(F)F)cc(C(F)(F)F)c2)c(F)cc2nc(N)nc(N)c12 has a melting point of 224 to 225 °C.
Work on O=C(/C=C/c1ccc2ccccc2c1)Nc1cc(Cl)ccc1OCc1nnn[nH]1 yielded a melting point of 218 to 223 °C.
In the case of BrCCCCOc1ccc2c(c1)OCO2, the melting point is reported as 52 to 54 °C.
For Cc1ccsc1C(O)CCN(C)C (stereo unspecified), the melting point was 41.5 to 42.5 °C.
Work on O=[N+]([O-])c1cc(CBr)cc(CBr)c1 yielded a melting point of 100 to 101 °C.
O=C(O)CCCCCCCNS(=O)(=O)c1ccc(Cl)cc1 gave a melting point of 122 to 124 °C.
COc1cc(Cc2cnc(N)nc2N)cc2cccnc12 gave a melting point of 285 to 287 °C.
Work on CC(=O)NC1CCC(=O)c2ccccc21 (stereo unspecified) yielded a melting point of 128 to 130 °C.
Work on COc1cc(C(=O)c2ccc(C(F)(F)F)cc2)ccc1OCc1ccccc1 yielded a melting point of 101 °C.
NNC(=O)c1[nH]cc(OCc2ccccc2)c(=O)c1Br showed a melting point of 184 °C.
COc1ccc2c(c1)C(=O)C(Cc1ccccn1)CO2 (stereo unspecified) gave a melting point of 112 to 114 °C.
Cn1ccnc1SCc1nc(-c2ccc3c(c2)OCO3)c2cc3c(cc2n1)OCO3 gave a melting point of 155 to 160 °C.
In the case of O=C1OC(=O)C(c2ccc(C(=O)O)cc2)=C1c1ccccc1, the melting point is reported as 247 to 249 °C.
In the case of C[C@]1(CN2CCN(C3CCN(C(=O)OCc4ccc(OC(F)(F)F)cc4)CC3)CC2)Cn2cc([N+](=O)[O-])nc2O1, the melting point is reported as 105 to 106 °C.
Work on O=C(O)c1cccc(Cc2c(-c3ccc(OC(F)F)c(OC4CC4)c3)[nH]c3cn[nH]c(=O)c23)c1 yielded a melting point of 155 to 163 °C.
OC(c1ccccc1)c1cc2ccnc(N(Cc3ccccc3)Cc3ccccc3)c2[nH]1 (stereo unspecified) gave a melting point of 53 to 61 °C.
With Cc1ccc(S(=O)(=O)N2CCc3ccccc3C(Oc3ccc(C(F)(F)F)cc3)C2)cc1 (stereo unspecified) the melting point was 114 to 115 °C.
Compound Cn1cc(C(=O)O)c(=O)c2c3cc(F)c(N4CCN(c5ccc(F)cc5)CC4)cc3ncc21 has a melting point of 346 °C.
In the case of O=C(Nc1cccc(C(F)(F)F)c1)c1cccc2cc(Oc3cc(CO)ncn3)ccc12, the melting point is reported as 183 to 184 °C.
For Cc1cccc(-c2nc3ccc(Cl)cn3c2-c2ccnc(-c3ccc(CN4CCCC4)cc3)c2)n1, the melting point was 134 °C.
Cn1cccc1CCNC(=O)Cn1c(-c2ccc(Cl)cc2)nc2cccnc21 gave a melting point of 171 to 172 °C.
In the case of CC1CC(=O)NN=C1c1ccc(NC(=O)c2cccs2)cc1 (stereo unspecified), the melting point is reported as 256 to 258 °C.
Compound COC(=O)c1nc(Cl)nc(N)c1OC has a melting point of 158 °C.
For O=C(O)Cn1c(C(=O)O)cc(=O)c2c1C(=O)C(O)=C2, the melting point was greater than 270 °C.
In the case of Cn1c(=O)c(C(=O)NC2CCCCC2)c(O)c2cc(F)ccc21, the melting point is reported as 193 °C.
With COc1cccc(Cn2c(C)c(CC(=O)O)c3cc(OCc4csc(-c5ccccc5)n4)ccc32)c1 the melting point was 162 to 163 °C.
With NCCON=C(CCCCCCNC(=NS(=O)(=O)c1ccc(Cl)cc1)N1CC(c2ccccc2)C(c2ccc(Cl)cc2)=N1)c1ccc(C(F)(F)F)cc1 (stereo unspecified) the melting point was 53 to 58 °C.
For O=C(Nc1ccccc1)C1=C(O)c2ccccc2N(c2ccccc2)C1, the melting point was 120 °C.
With CC(Oc1ccc(F)cc1)c1ccnc2ncnn12 (stereo unspecified) the melting point was 100 to 102 °C.
O=C1C(Cc2ccncc2)c2ccccc2N1N1CCOCC1 (stereo unspecified) showed a melting point of 108 to 110 °C.
Compound Cc1ccccc1CC(C)(C)NC(C)(O)c1ccc(O)c(O)c1C (stereo unspecified) has a melting point of 166 to 169 °C.
Work on C=CCN(c1nc(N2CCN(C(=O)n3ccnc3)CC2)nc(N(CC=C)C2CCCCC2)n1)C1CCCCC1 yielded a melting point of 132 to 135 °C.
In the case of CCOC(=O)NN=C(CC)c1ccncc1, the melting point is reported as 147 °C.
CCCc1c(OCCOCCOCCOCCOc2ccc3ccc(OCC(=O)O)cc3c2C(C)=O)ccc(C(C)=O)c1O gave a melting point of 57 to 58 °C.
Work on COc1ccc(-n2cnnc2S(C)(=O)=O)cc1 yielded a melting point of 191 °C.
For Cn1ccnc1Sc1ccc(Nc2c(C#N)cnc3cc(/C=C/CN4CCOCC4)ccc23)cc1Cl, the melting point was 235 to 240 °C.
CCNC(=O)OCCOc1ccc(Oc2cccc(Cl)c2)cc1Cl showed a melting point of 73 to 74 °C.
Work on CCCN(Sc1nc2ccccc2s1)C(C)(C)C yielded a melting point of 55 to 56 °C.
Cc1ccc(-c2ccc(Cl)cc2)cc1-c1c(O)cnn(C)c1=O gave a melting point greater than 250 °C.
Compound COc1ccc2c(c1)C(=O)N(c1ccc3c(cnn3C)c1)C2 has a melting point of 213 to 214 °C.
